{"source": "patent US7122193B1", "about": "(priority 1994, dated 2006)", "key": {"[1]": {"tested_on": "anti-virus serum raised in rabbit and serum against the 91–108 sequence expressed at the surface of Salmonella flagellin", "type": "binding", "conditions": "FIGS. 14 and 15"}, "HLA-A2": {"tested_on": "HLA-A2", "type": "binding, human"}, "trypsin": {"tested_on": "trypsin", "conditions": "pH 7.4"}, "in vitro": {"assay": "in vitro", "conditions": "pH 7.4"}, "[2]": {"molecular_target": "MAb 11 × 2 (IgG3) anti-D peptide"}, "[3]": {"molecular_target": "MAb 11 × 7 (IgG3) anti-D peptide"}, "I-E^d class II molecules": {"molecular_target": "I-E^d class II molecules (Mus musculus, UniProt P01904+P01915)", "sequence (P01904 26-255 limits assumed)": "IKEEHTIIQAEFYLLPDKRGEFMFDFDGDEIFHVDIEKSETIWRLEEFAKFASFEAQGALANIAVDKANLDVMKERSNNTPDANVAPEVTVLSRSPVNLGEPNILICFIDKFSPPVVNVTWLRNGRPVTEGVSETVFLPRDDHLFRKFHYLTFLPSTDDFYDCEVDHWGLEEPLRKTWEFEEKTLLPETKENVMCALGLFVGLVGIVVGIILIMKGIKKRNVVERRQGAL", "sequence (P01915 27-264 limits assumed)": "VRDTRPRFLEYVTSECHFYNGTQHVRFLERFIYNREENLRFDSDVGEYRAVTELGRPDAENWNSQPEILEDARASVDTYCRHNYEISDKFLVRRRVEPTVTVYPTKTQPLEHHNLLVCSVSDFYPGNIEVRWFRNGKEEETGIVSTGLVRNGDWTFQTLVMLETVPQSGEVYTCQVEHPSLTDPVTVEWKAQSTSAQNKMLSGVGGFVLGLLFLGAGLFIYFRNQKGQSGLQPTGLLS", "type": "cell-based"}, "[4]": {"tested_on": "peptide-primed T lymphocytes from BALB/c mice", "type": "cell-based, mouse"}, "I-A^d class II molecules": {"molecular_target": "I-A^d class II molecules (Mus musculus, UniProt P01921+P04228)", "sequence (P04228 24-256 limits assumed)": "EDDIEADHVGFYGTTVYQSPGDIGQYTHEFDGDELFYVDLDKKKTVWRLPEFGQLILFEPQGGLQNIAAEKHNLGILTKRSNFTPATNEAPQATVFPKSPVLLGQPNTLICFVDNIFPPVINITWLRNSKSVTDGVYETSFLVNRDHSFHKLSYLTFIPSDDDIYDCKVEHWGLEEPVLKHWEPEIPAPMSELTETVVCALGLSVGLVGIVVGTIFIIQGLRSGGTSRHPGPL", "sequence (P01921 28-265 limits assumed)": "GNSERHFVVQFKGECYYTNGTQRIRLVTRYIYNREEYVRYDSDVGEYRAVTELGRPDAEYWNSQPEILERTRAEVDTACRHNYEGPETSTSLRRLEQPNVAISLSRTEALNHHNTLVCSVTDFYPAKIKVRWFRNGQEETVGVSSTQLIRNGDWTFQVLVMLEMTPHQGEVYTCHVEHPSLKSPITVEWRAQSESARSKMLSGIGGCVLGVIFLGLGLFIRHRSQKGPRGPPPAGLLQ", "type": "cell-based"}, "[5]": {"tested_on": "sera of patients suffering from various systemic rheumatic diseases", "type": "binding, human"}, "[6]": {"tested_on": "IgG antibodies of sera of patients suffering from DLE and SS", "type": "binding, human", "protocol": "FIG. 6: ELISA reactivity of serum samples originating from patients suffering from DLE and SS with the parent peptide and the analogue RIb 277–291 of Ro52. The sera of the patients are diluted to 1:1,000. Only the antibody activity of the sub-class IgG is measured. The median values of the optical density are indicated. The broken line represents the upper limit of the normal population corresponding to the mean value of the optical density of 20 normal human sera+2 SD (standard deviation) (0.30 OD units).\nSera of female F1 lupous mice (NZB/W) were obtained from S. Batsford (Freibourg, Germany). The human sera originate from patients suffering from disseminated lupus erythematosus (DLE) and Sjögren's syndrome (SS). They were obtained from D. A. Isenberg (London), O. Meyer (Paris) and G. Fournié (Toulouse). The sera of healthy volunteers were obtained from J. L. Pasquali (Strasbourg).\nThe sera of lupous mice were tested by ELISA as described previously (Benkirane, N., Friede, M., Guichard, G., briand, J. P., Van Regenmortel, M. H. V. and Muller, S. (1993) Antigenicity and immunogenicity of modified synthetic peptides containing D-amino acid residues. J. Biol. Chem., 268: 26279–26285). Only the antibodies of isotype IgG were tested. […] Clin. Exp. Immunol., 95: 397–407) except in the case of the peptide Ro52 277–291, where sensitization of the ELISA plates was carried out at 4° C. instead of 37° C. (see the reasons above). The threshold value for positivity of each test, including that of tests based on the use of retro-inverso peptide analogues, was determined using 20 sera of healthy individuals. The antigenic activity of the peptides is also measured by ELISA using a liquid phase inhibition test.\nThe 30 sera (positive or negative with respect to the L peptide) were tested in parallel with the RIa and RIb analogues. It was shown that all the sera positive with the L peptide were also positive with the retro-inverso peptides. […] The mean optical density corresponding to the arithmetic mean of all the optical density values, including the values below the threshold line of positivity, is 0.21 (standard deviation 0.25) and 0.51 (standard deviation 0.62) with the L and RIb peptides respectively."}, "[7]": {"tested_on": "antibodies of sera of patients bonding to the RIb peptide", "type": "binding, human"}, "BALB/c mice": {"tested_on": "BALB/c mice", "conditions": "mouse, in vivo"}, "[8]": {"tested_on": "TCR of peptide-primed lymph node T-cells", "type": "cell-based, mouse"}, "[9]": {"tested_on": "peptide-primed T lymphocytes from BALB/c mice", "type": "cell-based, mouse", "remark": "listed apart in the source"}, "[10]": {"tested_on": "I-E^d-restricted T-cell hybridomas 45G10, 44B1 and 41C1", "type": "cell-based, mouse"}, "[11]": {"tested_on": "IgG antibodies of sera of patients suffering from DLE and SS", "type": "binding, human", "remark": "listed apart in the source"}}, "note": "Read-outs that look alike come from different tables or passages of the source. Ends that are not written are not given here. Peptide text beside a SMILES is read from it."}
{"molecule": "Ac-CKAFSNSYPYDVPDYASL-NH2 [double blocked L-peptide *C18L*]", "values": [{"measurement": "recognition by the tested antibodies (ELISA)", "setting": "[1]", "value": "substantially recognized in the same way"}]}
{"molecule": "GILGFVFAL [Ala 65]", "values": [{"measurement": "fixing to the molecule HLA-A2 (fluorescence), in words", "setting": "HLA-A2", "value": "very active"}]}
{"molecule": "CC[C@@H](C)[C@@H](NC(=O)CNC(=O)CNC(=O)[C@H](N)CS)C(=O)N[C@H](CCCNC(=N)N)C(=O)NCC(=O)N[C@H](CCC(=O)O)C(=O)N[C@H](CCCNC(=N)N)C(=O)N[C@H](C)C(=O)O", "note": "[D peptide] (HELM PEPTIDE1{[dC].G.G.[dI].[dR].G.[dE].[dR].[dA]}$$$$V2.0)", "values": [{"measurement": "time to complete loss of immunological activity on digestion with immobilized trypsin", "setting": "trypsin", "value": "> 240", "unit": "min"}, {"measurement": "half-life", "setting": "in vitro", "value": 1.22, "unit": "h"}, {"measurement": "BIAcore (Ka M^−1) affinity constant at equilibrium", "setting": "[2]", "value": "1e+10", "unit": "M⁻¹"}, {"measurement": "Ka (affinity constant at equilibrium)", "setting": "[2]", "value": "13,000 ×10^6 M^−1"}, {"measurement": "BIAcore (Ka M^−1) affinity constant at equilibrium", "setting": "[3]", "value": "1e+07", "unit": "M⁻¹"}, {"measurement": "Ka (affinity constant at equilibrium)", "setting": "[3]", "value": "1.2e+07", "unit": "M⁻¹"}]}
{"molecule": "[gLeu^60–mGly^61] M58–66 [GG5]", "values": [{"measurement": "fixing to the molecule HLA-A2 (fluorescence), in words", "setting": "HLA-A2", "value": "do not bond to the HLA-A2 molecule"}]}
{"molecule": "CH3CO-(D)Cys-(D)Ser-(D)Lys-(D)Gln-(D)Val-(D)Arg-(D)Leu-(D)Lys-(D)Ser-(D)Tyr-(D)Met-(D)Phe-(D)Tyr-NH2 [retro-inverso peptide 435–446 of γ2a^b]", "values": [{"measurement": "inhibition (of IL-2 production / binding of cI 12–26)", "setting": "I-E^d class II molecules", "value": "≤ 48", "unit": "%"}, {"measurement": "IL-2 production of T-lymphocytes of mice immunized with parent peptide 435–446 of γ2a^b, stimulated by the peptide", "setting": "[4]", "value": "failed to induce detectable IL-2 secretion"}, {"measurement": "maximal IL-2 secretion measured using CTL-L cells in the presence of Con A", "setting": "[4]", "value": "26 445 cpm"}, {"measurement": "inhibition, in words", "setting": "I-A^d class II molecules", "value": "almost no inhibition"}, {"measurement": "reduction of the IL-2 production", "setting": "I-A^d class II molecules", "value": "about 35%"}]}
{"molecule": "H-Ser → Ala → Pro → Ala → Thr → Gly → Gly → Val → Lys → Lys → Pro → His → Arg → Tyr → Arg → Pro → Gly → Thr-OH [natural L peptide 28–45]", "values": [{"measurement": "number of positive sera", "setting": "[5]", "value": 12}, {"measurement": "number of positive sera DLE", "setting": "[5]", "value": 8}, {"measurement": "percentage of positive sera", "setting": "[5]", "value": 17.4, "unit": "%"}]}
{"molecule": "H-CKAFSNSYPYDVPDYASL-OH [parent L-peptide C18L]", "values": [{"measurement": "recognition by the tested antibodies (ELISA)", "setting": "[1]", "value": "substantially recognized in the same way"}]}
{"molecule": "H2N-Gly ← D-Leu ← D-Lys ← D-Lys ← D-Nle ← D-Leu ← D-Arg ← D-Thr ← D-Cys ← D-Ala ← D-Val ← D-His ← D-Ile ← D-Thr ← (R,S)-mLeu-OH [RIb peptide]", "values": [{"measurement": "sera of patients tested in which anti-peptide 277–291 antibodies are detected", "setting": "[6]; 30 sera of DLE and SS patients", "value": 50, "unit": "%"}, {"measurement": "mean optical density", "setting": "[6]; arithmetic mean of all 30 sera, peptide 277–291 of Ro52", "value": 0.51}, {"measurement": "number of sera which reacted among the 25 sera negative with the L peptide", "setting": "[6]; threshold 0.30 OD units", "value": 10}, {"measurement": "inhibition of bonding of the antibodies to the RIb peptide", "setting": "[7]", "value": "up to 79.2%"}]}
{"molecule": "CH3CO-Lys-Leu-Phe-AI a-Val-Trp-Lys-Ile-Thr-Tyr-Lys-Asp-Thr-NH2 [L-peptide 103–115 of poliovirus VP1]", "values": [{"measurement": "cross-reaction in ELISA of antibodies raised against the peptide with the counterpart (L or retro-inverso) peptide", "setting": "BALB/c mice", "value": "cross-reacted, although less efficiently"}, {"measurement": "IL-2 production by T-cells primed with the retro-inverso analogue 103–115 in response to the peptide", "setting": "[8]", "value": "significantly increased"}, {"measurement": "proliferation of T-lymphocytes of mice immunized with retro-inverso analogue 103–115, in response to the peptide", "setting": "[9]", "value": "a good proliferative response"}, {"measurement": "proliferation of lymph node cells of mice immunized with parent peptide 103–115, stimulated in vitro by the peptide", "setting": "[9]", "value": "proliferated"}, {"measurement": "IL-2 production of T-cell hybridomas stimulated by the peptide", "setting": "[10]", "value": "produced high levels of IL-2"}, {"measurement": "inhibition (of IL-2 production / binding of cI 12–26)", "setting": "I-E^d class II molecules", "value": "up to 77%"}, {"measurement": "IL-2 production of T-lymphocytes of mice immunized with retro-inverso analogue 103–115, in response to the peptide", "setting": "[4]", "value": "IL-2 production were also found"}, {"measurement": "IL-2 production of lymph node cells of mice immunized with parent peptide 103–115, stimulated in vitro by the peptide", "setting": "[4]", "value": "produced significant levels of IL-2"}, {"measurement": "maximal IL-2 secretion measured using CTL-L cells in the presence of Con A", "setting": "[4]", "value": "10 990 cpm"}, {"measurement": "binding to I-A^d transfected fibroblasts, in words", "setting": "I-A^d class II molecules", "value": "Neither the L- nor the retro-inverso peptides bound"}]}
{"molecule": "Ac-YFMYSKLRVQKSC-NH2 [L-peptide 435–446 of γ2a^b]", "values": [{"measurement": "cross-reaction in ELISA of antibodies raised against the peptide with the counterpart (L or retro-inverso) peptide", "setting": "BALB/c mice", "value": "showed no cross-reaction"}, {"measurement": "proliferation and IL-2 production of lymph node cells of mice immunized with retro-inverso analogue 435–446 of γ2a^b, stimulated by the peptide", "setting": "[9]", "value": "proliferation of lymph node cells and IL-2 production were observed"}, {"measurement": "proliferation of T-lymphocytes of mice immunized with parent peptide 435–446 of γ2a^b, stimulated by the peptide", "setting": "[9]", "value": "induced a proliferative T-cell response"}, {"measurement": "inhibition (of IL-2 production / binding of cI 12–26)", "setting": "I-E^d class II molecules", "value": "Up to 84%"}, {"measurement": "IL-2 production of T-lymphocytes of mice immunized with parent peptide 435–446 of γ2a^b, stimulated by the peptide", "setting": "[4]", "value": "only observed after stimulation by the parent peptide"}, {"measurement": "maximal IL-2 secretion measured using CTL-L cells in the presence of Con A", "setting": "[4]", "value": "21 565 cpm"}, {"measurement": "reduction of the IL-2 production level", "setting": "I-A^d class II molecules", "value": "> 88", "unit": "%"}]}
{"molecule": "H2 N-D-Val ← D-Cys ← D-Glu ← D-Lys ← D-Leu ← D-Cys ← D-Asn ← D-Glu ← D-Lys ← D-Leu ← D-Leu ← D-Lys ← D-Lys ← D-Ala ← D-Arg ← D-Ile ← D-His ← D-Pro ← D-Phe ← D-His ← D-Ile-COCH3 [Blocked RI peptide 304–324 of Ro60]", "values": [{"measurement": "mean optical density", "setting": "[11]", "value": 1.15}, {"measurement": "number of sera which reacted", "setting": "[11]", "value": "15/20"}, {"measurement": "percentage of sera which reacted", "setting": "[11]", "value": 75, "unit": "%"}]}
{"molecule": "CH3CO-Ser → Ala → Pro → Ala → Thr → Gly → Gly → Val → Lys → Lys → Pro → His → Arg → Tyr → Arg → Pro → Gly → Thr-NH2 [blocked L peptide 28–45]", "values": [{"measurement": "number of positive sera", "setting": "[5]", "value": 20}, {"measurement": "number of positive sera DLE", "setting": "[5]", "value": 12}, {"measurement": "percentage of positive sera", "setting": "[5]", "value": 29, "unit": "%"}]}
{"molecule": "GLLGFVFTL [Leu 59]", "values": [{"measurement": "fixing to the molecule HLA-A2 (fluorescence), in words", "setting": "HLA-A2", "value": "very active"}]}
{"molecule": "H → Gly → Leu → Lys → Lys→ Nle → Leu → Arg → Thr → Cys → Ala → Val → His → Ile → Thr → Leu → OH [L peptide 277–291]", "values": [{"measurement": "inhibition of bonding of the antibodies to the RIb peptide", "setting": "[7]", "value": "up to 75.8%"}]}
